Measurements from US20250304608A1, “PHOSPHORUS COMPOUND AND USE THEREOF” (SHANGHAI SHIJIANG BIOTECHNOLOGY CO., LTD., priority 2022, published 2025).
Like-named read-outs stand apart in the source and are kept apart here.

Key:
[1] = system: Daoy cell transfected with empty virus vector without carrying shRNA; experiment: TMRM mitochondria membrane potential in Daoy cell transfected with empty virus vector (Con shRNA); format: cell-based, human; settings: H2O2 +, CsA −, untreated = 100
[2] = system: Daoy cell transfected with virus vector carrying shRNA that induces degradation of PPIF mRNA; experiment: TMRM mitochondria membrane potential in Daoy cell transfected with PPIF shRNA; format: cell-based, human; settings: H2O2 +, CsA −, untreated = 100
Daoy cell = experiment: TMRM mitochondria membrane potential in Daoy cell after CsA / H2O2 treatment; format: cell-based, human; settings: untreated = 100
From the text: The mitochondria permeability transition pore (mPTP) was a non-specific channel on the inner membrane of mitochondria, which could allow small molecules with molecular less than 1.5KD to pass freely, and its activity was affected by peroxides (such as H2O2), pH and calcium ions in mitochondria. […] For cells with active mitochondria permeability transition pore, adding peroxide (such as H2O2) could increase the activity of mitochondria permeability transition pore, resulting in a decrease in mitochondna membrane potential.

mPTP-active Daoy cell = experiment: CellTiter-Glo cell viability inhibition, mPTP-active Daoy cell; format: cell-based; settings: Homo sapiens
Con-NCI-H82 cell = experiment: CellTiter-Glo cell viability inhibition, Con-NCI-H82 cell; format: cell-based; settings: Homo sapiens, NCI-H82 cell transfected with empty virus vector
From the text: (§1) The expression of NNMT protein in NCI-H82 cell was overexpressed by inserting the NNMT gene into NCI-H82 cell using a viral vector, and the NNMT protein-overexpressing NCI-H82 cell (ov-NNMT NCI-H82 cell) was obtained. The control NCI-H82 cell (Con-NCI-H82 cell) was obtained by transfecting NCI-H82 cell with empty virus vector without carrying NNMT gene. The expressing content of NNMT protein in the Con-NCI-H82 cell and ov-NNMT NCI-H82 cell was detected using Western Blot assay (as shown in FIG. 3), it could be seen from FIG. 3 that the NNMT protein was overexpressed in the ov-NNMT NCI-H82 cell compared with the expression level of NNMT protein in the Con-NCI-H82 cell.

ov-NNMT NCI-H82 cell = experiment: CellTiter-Glo cell viability inhibition, ov-NNMT NCI-H82 cell; format: cell-based; settings: Homo sapiens, NCI-H82 cell overexpressing NNMT protein
From the text: as §1

mPTP-inactive Daoy cell = experiment: CellTiter-Glo cell viability inhibition, mPTP-inactive Daoy cell; format: cell-based; settings: Homo sapiens, Daoy cell transfected with PPIF shRNA vector
[3] = Daoy cell transfected with empty virus vector, CellTiter-Glo, read-out: mPTP-active Daoy cell (IC50)

| SMILES | IC50 (Con-NCI-H82 cell) [µM] | IC50 (ov-NNMT NCI-H82 cell) [µM] | Relative TMRM signal intensity (%), mean value [1] [%] | Relative TMRM signal intensity (%), mean value [2] [%] | Relative TMRM signal intensity (%) in Daoy cell, mean value (Daoy cell) [%] | IC50 (mPTP-active Daoy cell; [3]) [µM] | IC50 (mPTP-inactive Daoy cell) [nM] | IC50 (mPTP-active Daoy cell; Daoy, read-out: mPTP-active Daoy cell (IC50, μM)) [µM] |
| --- | --- | --- | --- | --- | --- | --- | --- | --- |
| OO [Compound H2O2, H2O2] |  |  | 79 | 95 | 82 |  |  |  |
| Cn1ccc2c([P+](c3ccccc3)(c3ccccc3)c3cccc4[nH]ncc34)cccc21 [AB35577] | 1.08 | 4.54 |  |  |  | 3.89 | 1210 |  |
| COc1ccc([P+](c2ccc(OC)cc2)(c2ccnc3c2ccn3C)c2cccc3c2cnn3C)cc1 [AB36449] | 1.49 | 5.91 |  |  |  | 2.16 | 570 |  |
| c1ccc([P+](c2ccccc2)(c2ccccc2)c2cccc3[nH]ncc23)cc1 [AB35481] | 2.45 | 9.82 |  |  |  | 16.7 | 2500 |  |
| c1ccc([P+](c2ccccc2)(c2ccncc2)c2ccc3cc[nH]c3c2)cc1 [AB35479] | 6.36 | 25.5 |  |  |  | 25.1 | 6510 |  |
| COc1ccc([P+](c2ccc(OC)cc2)(c2ccnc3c2ccn3C)c2ccnc3c2ccn3C)cc1 [AB36448] | 4.23 | 11.3 |  |  |  | 7.24 | 2000 |  |
| c1ccc([P+](c2ccccc2)(c2ccc3[nH]ccc3c2)c2ccc3[nH]cnc3c2)cc1 [AB35539] | 1.55 | 6.03 |  |  |  | 12.2 | 3880 |  |
| c1ccc([P+](c2ccccc2)(c2ccccc2)c2cccc3scnc23)cc1 [AB36534] | 1.35 | 5.11 |  |  |  | 3.66 | 1210 |  |
| c1ccc([P+](CC[P+](c2ccccc2)(c2ccccc2)c2ccccc2)(c2ccccc2)c2ccccc2)cc1 [SJ00003] | 3.24 | 2.98 |  |  |  | 4.91 | 5180 |  |
| c1ccc([P+](c2ccccc2)(c2ccc3[nH]ncc3c2)c2cccc3[nH]ccc23)cc1 [AB35580] | 0.55 | 3.66 |  |  |  | 4.57 | 1160 |  |
| COc1ccc([P+](c2ccc(OC)cc2)(c2cccc3[nH]ncc23)c2cccc3[nH]ncc23)cc1 [AB36516] | 6.47 | 17.9 |  |  |  | 33.1 | 9580 |  |
| COc1ccc([P+](c2ccc(OC)cc2)(c2cccc3c2cnn3C)c2cccc3c2cnn3C)cc1 [AB36439] | 3.07 | 7.83 |  |  |  | 4.36 | 1290 |  |
| c1ccc([P+](c2ccccc2)(c2cccc3[nH]ncc23)c2cccc3[nH]ncc23)cc1 [AB35480] | 13.8 | 40.1 |  |  |  | > 50 | 6260 |  |
| C1=C([P+](c2ccccc2)(c2ccccc2)c2ccccc2)CCOC1 [AB36546] | 4.72 | 10.5 |  |  |  | 35.1 | 7280 |  |
| c1ccc([P+](c2ccccc2)(c2ccc3cc[nH]c3c2)c2ccccn2)cc1 [AB35507] | 0.78 | 3.96 |  |  |  | 4.08 | 1730 |  |
| c1ccc([P+](c2ccccc2)(c2cncc3[nH]ccc23)c2cncc3[nH]ccc23)cc1 [AB35477] | 25.3 | > 50 |  |  |  | 24.2 | 10300 |  |
| COc1ccc([P+](c2ccc(OC)cc2)(c2cccc3nn(C)cc23)c2cccc3c2cnn3C)cc1 [AB36445] | 6.92 | 18.3 |  |  |  | 13.9 | 3020 |  |
| CCCCCCCCCCCC[P+](c1ccccc1)(c1ccccc1)c1ccccc1 [SJ00005] | 0.19 | 0.17 |  |  |  |  | 330 | 0.32 |

Continued by falling IC50 (Con-NCI-H82 cell), values first:

| IC50 (Con-NCI-H82 cell) [µM] | IC50 (ov-NNMT NCI-H82 cell) [µM] | SMILES | Relative TMRM signal intensity (%), mean value [1] [%] | Relative TMRM signal intensity (%), mean value [2] [%] | Relative TMRM signal intensity (%) in Daoy cell, mean value (Daoy cell) [%] | IC50 (mPTP-active Daoy cell; [3]) [µM] | IC50 (mPTP-inactive Daoy cell) [nM] | IC50 (mPTP-active Daoy cell; Daoy, read-out: mPTP-active Daoy cell (IC50, μM)) [µM] |
| --- | --- | --- | --- | --- | --- | --- | --- | --- |
| 0.52 | 3.34 | c1ccc([P+](c2ccccc2)(c2ccccc2)c2cccc3c2ccn3CCN2CCOCC2)cc1 [AB35585] |  |  |  | 3.54 | 1220 |  |
| 0.48 | 2.09 | COc1ccc([P+](c2ccc(OC)cc2)(c2ccc3[nH]ccc3n2)c2cccc3c2ccn3CCN2CCOCC2)cc1 [AB36459] |  |  |  | 1.56 | 320 |  |
| 0.32 | 2.34 | c1ccc([P+](c2ccccc2)(c2ccc3cc[nH]c3n2)c2cccc3[nH]ccc23)cc1 [AB35589] |  |  |  | 1.53 | 360 |  |
| 0.27 | 1.21 | c1ccc([P+](c2ccccc2)(c2ccc3cc[nH]c3c2)c2ccc3cc[nH]c3c2)cc1 [AB35437] |  |  |  | 0.92 | 300 |  |
| 0.24 | 1.73 | c1ccc([P+](c2ccccc2)(c2ccc3[nH]ccc3n2)c2cccc3[nH]ccc23)cc1 [AB35584] |  |  |  | 1.34 | 460 |  |
| 0.24 | 1.55 | COc1ccc([P+](c2ccc(OC)cc2)(c2cccc3c2ccn3C)c2ccnc3c2ccn3C)cc1 [AB36407] |  |  |  | 1.13 | 240 |  |
| 0.23 | 1.56 | c1ccc([P+](c2ccccc2)(c2ccccc2)c2cccc3[nH]ccc23)cc1 [AB35450] |  |  |  | 0.43 | 100 |  |
| 0.19 | 1.43 | Cn1ccc2cc([P+](c3ccccc3)(c3ccccc3)c3ccccc3)ccc21 [AB35571] |  |  |  | 1.38 | 270 |  |
| 0.14 | 1.37 | Cn1ccc2c([P+](c3ccccc3)(c3ccccc3)c3ccccc3)cccc21 [AB35573] |  |  |  | 1.26 | 240 |  |
| 0.13 | 0.14 | CCCCCCCCCCCCCC[P+](c1ccccc1)(c1ccccc1)c1ccccc1 [SJ00006] |  |  |  | 0.29 | 340 |  |
| 0.13 | 1.32 | Cn1ccc2c([P+](c3ccccc3)(c3ccccc3)c3cccc4[nH]ccc34)cccc21 [AB35564] |  |  |  | 0.39 | 50 |  |
| 0.13 | 0.96 | c1ccc([P+](c2ccccc2)(c2ccc3[nH]ccc3c2)c2ccc3[nH]ccc3c2)cc1 [AB35451] |  |  |  | 1.22 | 280 |  |
| 0.11 | 0.86 | COc1ccc([P+](c2ccccc2)(c2ccccc2)c2cccc3[nH]ccc23)cc1 [AB36513] |  |  |  | 1.96 | 380 |  |
| 0.05 | 0.56 | c1ccc([P+](c2ccccc2)(c2cccc3[nH]ccc23)c2cccc3[nH]ccc23)cc1 [AB35419] |  |  |  | 0.74 | 150 |  |
